Assay results from patent EP0973746B1, “SUBSTITUTED 3-CYANO QUINOLINES” (Wyeth Holdings Corporation, priority 1997, dated 1998).
≈ marks a conversion by molar mass, not a printed value.

Experiments:
[1] = molecular target: epidermal growth factor receptor kinase (Homo sapiens, UniProt P00533); assay: biochemical
A431 = assay: Inhibition of cancer cell growth as measured by cell number, A431; type: cell-based, human; conditions: Homo sapiens, A-431, 48 h, read-out: IC50 A431;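 also: human A431 line, picked because it overexpresses epidermal growth factor receptor (EGFR)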
Description: (§1) The cell lines were chosen since they overexpressed epidermal growth factor receptor (EGFR) (i.e. A431) or HER2/neu (SKBR3), or had little to no expression of the these receptors (SW620, LOX, MCF7).

[2] = molecular target: T1, His-tagged cytoplasmic domain of EGFR (Homo sapiens, UniProt P00533); assay: Inhibition of Epidermal Growth Factor Receptor Kinase (EGF-R) using recombinant enzyme; type: biochemical; conditions: recombinant enzyme; RR-SRC peptide; average of the number of tests; read-out: IC50;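 also: radiometric kinase assay measuring radiolabeled phosphate transfer from ATP onto the peptide tyrosine by scintillation counting, control is reaction without compound, background subtracted, IC50 from dose-response curve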
T1 construct: containing the EGFR cDNA encoding amino acids 645 - 1186 preceded by Met-Ala-(His)6; made in house; host or cells: Sf9 cells, recombinant baculovirus vHcEGFR52
T1 sequence (P00533 669-1210): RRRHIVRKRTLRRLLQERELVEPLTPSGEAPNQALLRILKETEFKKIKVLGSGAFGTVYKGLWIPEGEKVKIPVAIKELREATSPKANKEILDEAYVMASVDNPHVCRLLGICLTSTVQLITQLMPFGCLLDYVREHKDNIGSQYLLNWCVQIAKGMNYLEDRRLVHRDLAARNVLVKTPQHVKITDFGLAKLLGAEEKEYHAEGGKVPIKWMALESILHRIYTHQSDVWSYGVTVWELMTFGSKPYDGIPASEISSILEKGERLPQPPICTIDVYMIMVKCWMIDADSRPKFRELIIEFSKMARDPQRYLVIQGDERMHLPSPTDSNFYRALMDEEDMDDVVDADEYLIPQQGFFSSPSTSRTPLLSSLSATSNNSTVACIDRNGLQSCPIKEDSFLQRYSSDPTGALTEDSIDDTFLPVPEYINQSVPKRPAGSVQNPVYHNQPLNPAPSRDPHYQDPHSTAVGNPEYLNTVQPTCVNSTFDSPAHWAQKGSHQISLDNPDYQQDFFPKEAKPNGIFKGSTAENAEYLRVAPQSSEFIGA

SKBR3 = assay: Inhibition of cancer cell growth as measured by cell number, SKBR3; type: cell-based, human; conditions: Homo sapiens, SK-BR-3, 48 h, read-out: IC50 SKBR3;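 also: SK-BR-3 cells were selected as a line overexpressing HER2/neu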
Description: as §1

[3] = molecular target: recombinant human MEK 1 (MAPKK) and recombinant human ERK2 (MAPK); assay: Mitogen Activated Protein Kinase (MAPK) assay, two component coupled MEK 1 / ERK2; type: biochemical; conditions: separate entries for the same compound = evaluated more than one time;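 also: MEK 1-activated ERK2 phosphorylates MBP or Myc peptide with 33P-ATP, filter capture and scintillation counting, inhibitor preincubated with ERK2 30 min at 0 °C, inhibition relative to uninhibited control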
SW620 = assay: Inhibition of cancer cell growth as measured by cell number, SW620; type: cell-based, human; conditions: Homo sapiens, SW-620, 48 h, read-out: IC50 SW620;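 also: SW620 was included as a cell line with little or no EGFR or HER2/neu expression, in contrast to receptor-overexpressing lines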
Description: as §1

[4] = molecular target: T2, Kinase insert Domain containing Receptor (KDR: the catalytic domain of the VEGF receptor) (Homo sapiens, UniProt P35968); assay: Inhibition of Kinase insert Domain containing Receptor (KDR); type: biochemical; conditions: pH 7.2; radioactive format; read-out: KDR IC50 (converted);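 also: KDR phosphorylating a Glu:Tyr 4:1 copolymer with P32- or P33-labelled ATP, Mg++ and vanadate, read as acid-insoluble radiolabel, compared with compound-free reaction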
T2 construct: KDR: the catalytic domain of the VEGF receptor
T2 sequence (P35968 834-1162 limits assumed): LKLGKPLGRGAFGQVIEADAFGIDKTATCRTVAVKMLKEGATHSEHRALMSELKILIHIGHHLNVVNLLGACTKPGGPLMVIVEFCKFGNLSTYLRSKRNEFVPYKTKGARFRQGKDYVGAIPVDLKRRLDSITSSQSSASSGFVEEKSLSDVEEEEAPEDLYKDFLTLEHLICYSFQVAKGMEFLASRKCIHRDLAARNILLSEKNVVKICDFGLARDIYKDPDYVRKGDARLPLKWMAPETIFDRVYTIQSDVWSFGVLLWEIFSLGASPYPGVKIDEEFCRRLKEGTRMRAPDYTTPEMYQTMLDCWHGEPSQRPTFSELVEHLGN
Protocol: In this standard pharmacological test procedure, KDR protein is mixed, in the presence or absence of a inhibitor compound, with a substrate peptide to be phosphorylated (a copolymer of glutamic acid and tyrosine, E:Y :: 4:1) and other cofactors such as Mg^++ and sodium vanadate (a protein tyrosine phosphatase inhibitor) in an appropriate buffer to maintain pH (7.2). ATP and a radioactive tracer (either P^32-or P^33- labeled ATP) is then add to initiate phosphorylation. After incubation, the radioactive phosphate associated with the acid-insoluble fraction of the assay mixture is then quantified as reflection of substrate phosphorylation.

[5] = molecular target: Epithelial Cell Kinase (ECK) (Homo sapiens, UniProt P29317); assay: biochemical
Chain of Epithelial Cell Kinase (ECK) (P29317 24-976, species assumed): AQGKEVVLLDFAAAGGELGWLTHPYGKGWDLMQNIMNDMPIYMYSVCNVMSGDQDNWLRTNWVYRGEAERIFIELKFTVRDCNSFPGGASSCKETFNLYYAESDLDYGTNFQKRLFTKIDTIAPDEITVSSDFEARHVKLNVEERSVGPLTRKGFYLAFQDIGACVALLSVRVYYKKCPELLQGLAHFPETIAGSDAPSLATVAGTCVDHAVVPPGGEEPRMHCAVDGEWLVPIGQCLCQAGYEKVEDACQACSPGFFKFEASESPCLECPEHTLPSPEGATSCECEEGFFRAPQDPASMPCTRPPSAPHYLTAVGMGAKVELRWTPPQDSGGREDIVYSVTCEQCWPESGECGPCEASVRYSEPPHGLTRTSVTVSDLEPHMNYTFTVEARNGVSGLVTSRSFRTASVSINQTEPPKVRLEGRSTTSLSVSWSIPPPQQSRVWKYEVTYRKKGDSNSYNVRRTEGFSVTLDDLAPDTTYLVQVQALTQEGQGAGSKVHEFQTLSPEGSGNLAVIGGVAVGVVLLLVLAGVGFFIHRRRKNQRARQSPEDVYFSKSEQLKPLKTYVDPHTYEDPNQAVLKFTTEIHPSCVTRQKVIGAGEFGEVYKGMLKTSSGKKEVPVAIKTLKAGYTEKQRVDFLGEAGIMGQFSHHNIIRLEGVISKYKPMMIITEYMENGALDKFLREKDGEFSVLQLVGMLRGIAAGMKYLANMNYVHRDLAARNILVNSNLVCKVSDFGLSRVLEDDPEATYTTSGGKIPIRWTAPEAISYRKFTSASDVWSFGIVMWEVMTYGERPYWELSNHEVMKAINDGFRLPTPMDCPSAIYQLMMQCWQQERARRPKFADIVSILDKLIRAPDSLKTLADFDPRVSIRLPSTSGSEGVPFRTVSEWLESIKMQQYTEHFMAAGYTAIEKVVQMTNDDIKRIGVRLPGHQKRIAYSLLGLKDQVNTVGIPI
Protocol: In this standard pharmacological test procedure, a biotinylated peptide substrate is first immobilized on neutravidin-coated microtiter plates. The test drug, the Epithelial Cell Kinase (ECK), Mg^++, sodium vanadate (a protein tyrosine phosphatase inhibitor), and an appropriate buffer to maintain pH (7.2) are then added to the immobilized substrate-containing microtiter wells. ATP is then added to initiate phosphorylation. After incubation, the assay plates are washed with a suitable buffer leaving behind phosphorylated peptide which is exposed to horse radish peroxidase (HRP)-conjugated anti-phosphotyrosine monoclonal antibody. The antibody-treated plates are washed again and the HRP activity in individual wells is quantified as a reflection of degree of substrate phosphorylation.

Chain of epidermal growth factor receptor kinase (P00533 25-1210): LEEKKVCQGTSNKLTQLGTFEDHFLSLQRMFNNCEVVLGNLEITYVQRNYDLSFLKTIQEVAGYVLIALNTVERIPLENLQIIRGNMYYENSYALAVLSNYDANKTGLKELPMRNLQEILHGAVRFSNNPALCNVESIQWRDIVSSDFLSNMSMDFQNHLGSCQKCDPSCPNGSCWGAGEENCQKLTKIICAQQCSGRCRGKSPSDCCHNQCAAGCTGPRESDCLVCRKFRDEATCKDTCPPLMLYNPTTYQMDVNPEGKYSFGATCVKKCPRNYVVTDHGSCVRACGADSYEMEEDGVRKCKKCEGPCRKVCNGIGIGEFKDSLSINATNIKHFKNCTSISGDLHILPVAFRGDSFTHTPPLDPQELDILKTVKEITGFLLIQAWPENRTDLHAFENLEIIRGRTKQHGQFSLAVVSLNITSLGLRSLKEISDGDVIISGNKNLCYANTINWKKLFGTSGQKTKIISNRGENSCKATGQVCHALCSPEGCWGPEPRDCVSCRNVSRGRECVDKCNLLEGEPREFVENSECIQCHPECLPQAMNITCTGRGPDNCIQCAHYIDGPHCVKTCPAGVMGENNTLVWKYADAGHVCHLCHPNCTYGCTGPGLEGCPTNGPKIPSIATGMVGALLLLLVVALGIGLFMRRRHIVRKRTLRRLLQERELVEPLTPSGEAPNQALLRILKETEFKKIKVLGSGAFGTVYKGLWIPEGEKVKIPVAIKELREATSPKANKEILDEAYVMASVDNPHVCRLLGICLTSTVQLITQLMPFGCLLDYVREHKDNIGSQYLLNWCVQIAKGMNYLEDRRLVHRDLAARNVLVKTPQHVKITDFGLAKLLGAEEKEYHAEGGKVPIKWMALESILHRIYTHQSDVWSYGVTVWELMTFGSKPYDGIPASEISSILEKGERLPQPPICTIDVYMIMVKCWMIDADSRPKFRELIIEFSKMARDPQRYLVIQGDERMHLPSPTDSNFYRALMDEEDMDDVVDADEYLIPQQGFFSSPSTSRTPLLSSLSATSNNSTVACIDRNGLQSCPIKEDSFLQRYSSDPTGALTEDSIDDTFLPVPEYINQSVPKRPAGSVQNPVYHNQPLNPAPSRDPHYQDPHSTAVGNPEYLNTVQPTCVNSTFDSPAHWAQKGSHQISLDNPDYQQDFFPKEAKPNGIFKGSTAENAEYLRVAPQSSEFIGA

| IC50 [1] | SMILES | IC50 [3] | IC50 [4] | IC50 [5] | other results |
| --- | --- | --- | --- | --- | --- |
| 0.007 µM | C=CC(=O)Nc1ccc2ncc(C#N)c(Nc3ccc(Br)c(Br)c3)c2c1 [Example 54, N-[4-[(3,4-Dibromophenyl)amino]-3-cyano-6-quinolinyl]-2-propenamide] |  |  |  |  |
| 0.008 µM | N#Cc1cnc2ccc(NC(=O)C#CCO)cc2c1Nc1cccc(Br)c1 [Example 57, N-[4-[(3-Bromophenyl)amino]-3-cyano-6-quinolinyl]-4-hydroxy-2-butynamide] |  |  |  |  |
| 0.002 µM | N#Cc1cnc2ccc(NC(=O)C#CCN3CCOCC3)cc2c1Nc1cccc(Br)c1 [Example 58, N-[4-[(3-Bromophenyl)amino]-3-cyano-6-quinoliny]-4-morpholino-2-butynamide] |  |  |  |  |
| 0.0001 µM | CN(C)CC#CC(=O)Nc1ccc2ncc(C#N)c(Nc3cccc(Br)c3)c2c1 [Example 59, N-[4-[(3-Bromophenyl)amino]-3-cyano-6-quinolinyl]-4-dimethylamino-2-butynamide] |  |  |  |  |
|  | CN(C)CC=CC(=O)Nc1ccc2ncc(C#N)c(Nc3ccc(F)c(Cl)c3)c2c1 [Example 145] | 35 µM | > 70.8 µM | > 47.2 µM | IC50 (A431): 0.03 µg/mL (≈ 0.0708 µM); IC50 [2]: 0.06 µM; IC50 (SKBR3): 0.03 µg/mL (≈ 0.0708 µM); IC50 (SW620): 0.4 µg/mL (≈ 0.944 µM) |
|  | COc1ccc2c(Nc3ccc(C)c(O)c3)c(C#N)cnc2c1 [Example 281, 4-(3-hydroxy-4-methyl-phenylamino)-7-methoxy-quinoline-3-carbonitrile] | 2.5 µM | 9.83 µM | 0.0033 µM |  |
|  | COc1ccc2c(Nc3cc(O)c(Cl)cc3F)c(C#N)cnc2c1 [Example 282, 4-(4-Chloro-2-fluoro-5-hydroxy-phenylamino)-7-methoxy-quinoline-3-carbonitrile] | > 100 µM | 5.82 µM | 0.0029 µM |  |
|  | COc1cc2ncc(C#N)c(Nc3ccc(O)cc3C)c2cc1OC [Example 292, 4-(4-Hydroxy-2-methyl-phenylamino)-6,7-dimethoxy-quinoline-3-carbonitrile] | > 100 µM | 29.8 µM | 0.0018 µM |  |
|  | COc1cc2ncc(C#N)c(Nc3cccc(SC)c3)c2cc1OC [Example 294, 6,7-Dimethoxy-4-(3-methylsulfanyl-phenylamino)-quinoline-3-carbonitrile] | 9 µM | 17.1 µM | 0.002 µM |  |
|  | COc1cc2ncc(C#N)c(Nc3cc(O)c(Cl)cc3F)c2cc1OC [Example 319, 4-(4-Chloro-2-fluoro-5-hydroxy-phenylamino)-6,7-dimethoxy-quinoline-3-carbonitrile] | < 1 µM | 1.34 µM | 0.001 µM |  |
